US9783488B2 (CHDI Foundation, Inc., priority 2013, dated 2017)

What was measured:
[1] = tested on: cellular histone deacetylase enzymatic activity in Jurkat E6-1 cells; test: Inhibition of cellular HDAC activity in Jurkat E6-1 cells, fluorogenic substrate Boc-Lys(Tfa)-AMC; type: cell-based; settings: Homo sapiens, read-out: Cell IC50
Source text: Analysis of Inhibition of Cellular HDAC Activity with Class IIa Histone Deacetylase (HDAC) Inhibitors
The potency of Class IIa Histone Deacetylase (HDAC) inhibitors is quantified by measuring the cellular histone deacetylase enzymatic activity using the fluorogenic substrate, Boc-Lys(Tfa)-AMC. After penetration in Jurkat E6-1 cells, the substrate is deacetylated to Boc-Lys-AMC. After cell lysis and cleavage by trypsin, the fluorophore AMC is released from the deacetylated substrate only. The fluorescence of the sample is directly related to the histone deacetylase activity in the sample.
Jurkat E6.1 cell culture and plating. Jurkat E6.1 cells are cultured according to standard cell culture protocols in Jurkat E6.1 Growth Media (RPMI without phenol red, 10% FBS, 1 mM HEPES, and 1 mM Sodium Pyruvate). Jurkat E6.1 cells are counted using a Coulter Counter and resuspended in Jurkat E6.1 growth media at a concentration of 75,000 cells/35 μl. 35 μl or 75,000 cells is seeded into Greiner microtitre assay plates. The plates are then incubated at 37° C. and 5% CO2 while other assay components are being prepared.
Serially dilute HDAC inhibitor compounds. Serial dilutions of the HDAC inhibitors and control reference compound (1-(5-(3-((4-(1,3,4-oxadiazol-2-yl)phenoxy)methyl)-1,2,4-oxadiazol-5-yl)thiophen-2-yl)-2,2,2-trifluoroethanone) are made by first resuspending the lyophilized compound to a final concentration of 10 mM in […]. Stocks of 70 μl aliquots of the 10 mM compound in DMSO are prepared and stored at −20° C. From one stock aliquot of each compound to be tested and the reference compound, a 16-point serial dilution is prepared according to Table 1 using a 125 μl 16-channel Matrix multi-channel pipette.
2 μl (200×) of each diluted solution and each control (full activity: 100% DMSO alone or full inhibition 1 mM) is stamped into V-bottom polypropylene 384-well compound plates using either the Bravo, Janus, or 12.5 μl 16-channel Matrix multi-channel pipette. Each well with the 200× compound solution is diluted 1:20 by the addition of 38 μl Jurkat assay buffer+DMSO (9.5% DMSO, RPMI without phenol red, 0.09% FBS, 9 mM Hepes, and 0.9 mM Sodium Pyruvate equilibrated to r.t.)
Prepare 5× (500 μM) Boc-Lys(Tfa)-AMC substrate. 5× (500 μM) substrate is prepared just prior to the addition to the assay. The 5× substrate is prepared by diluting a 100 mM Boc-Lys(Tfa)-AMC in DMSO solution 1:200 by adding it drop-wise to Jurkat assay medium (RPMI without phenol red, 0.1% FBS, 10 mM Hepes, and 1 mM Sodium Pyruvate equilibrated to 37° C.) while vortexing at slow speed to prevent precipitation.
Prepare 3× Lysis Buffer. 10 mL of 3× lysis buffer is prepared with 8.8 mL of 3× stock lysis buffer (50 mM Tris-HCl, pH 8.0, 137 mM NaCl, 2.7 mM KCl, 1 mM MgCl2, 1% Nonidet P40 Substitute equilibrated to r.t.) and 1.2 mL of 3 mg/mL Trypsin equilibrated to r.t.
Assay. 5 μl of each solution of 1:20 diluted compound from above is transferred to the Greiner microtitre assay plates with 75,000 cells/well using the Bravo. Cells are then incubated for 2 hours at 37° C. and 5% CO2. The assay is then started by adding 10 μl of 5× (500 μM) substrate to the assay plate using either the Bravo or 16-channel Matrix multi-channel pipette. The cells are then incubated for 3 hours at 37° C. and 5% CO2. Next, 25 μl of 3× lysis buffer is added to each well using either the 125 μl 16 channel pipette or the Bravo. The assay plate is then incubated overnight (15-16 hours) at 37° C. and 5% CO2. The following day, the plates are shaken on an orbital shaker for 1 minute at 900 rpm. Finally the top read fluorescence (Excitation: 355 nm, Emission: 460 nm) is measured using PerkinElmer EnVision.

[2] = biological target: human catalytic domain HDAC4 protein (amino acids 648-1032) (Homo sapiens (Human), UniProt P56524); test: Inhibition of HDAC4 catalytic domain enzymatic activity, fluorogenic substrate Boc-Lys(Tfa)-AMC; settings: HDAC4 catalytic domain enzyme, read-out: Biochemical HDAC4 IC50
Source text: Analysis of Inhibition of HDAC4 with Class IIa Histone Deacetylase (HDAC) Inhibitors
The potency of Class IIa Histone Deacetylase (HDAC) inhibitors is quantified by measuring the Histone Deacetylase 4 (HDAC4) catalytic domain enzymatic activity using the fluorogenic substrate, Boc-Lys(Tfa)-AMC. The substrate is deacetylated to Boc-Lys-AMC by HDAC4. Cleavage by trypsin results in the release of the fluorophore AMC from the deacetylated substrate. The fluorescence of the sample is directly related to the histone deacetylase activity in the sample.
Serially dilute HDAC inhibitor compounds. […] Stocks of 6 μl aliquots of the 10 mM compound in DMSO are prepared and stored at […]. From one stock aliquot of each compound to be tested and the reference compound, a 16-point serial dilution is prepared according to Table 1 using a 125 μl 16-channel Matrix multi-channel pipette (Matrix Technologies Ltd).
2 μl (200×) of each diluted solution and each control (full activity: 100% DMSO alone or full inhibition 1 mM) is stamped into V-bottomed polypropylene 384-well compound plates using either the Bravo (384-well head from Agilent) or 12.5 μl 16-channel Matrix multi-channel pipette (Matrix Technologies Ltd).
Prepare HDAC4 catalytic domain enzyme (0.2 μg/mL).
Prepare 5× ([…]) Boc-Lys(Tfa)-AMC Substrate. 5× (50 μM) substrate is prepared just prior to the addition to the assay. A 1 mM substrate stock is made by diluting a 100 mM Boc-Lys(Tfa)-AMC in DMSO solution 1:100 by adding it drop-wise to assay buffer (equilibrated to r.t.) while vortexing at slow speed to prevent precipitation. The 5× substrate is prepared by diluting the 1 mM substrate solution 1:20 by adding it drop-wise to assay buffer (equilibrated to r.t.) while vortexing at slow speed to prevent precipitation.
Prepare 3× (30 μM) Developer/Stop Solution.
Assay. 5 μl of each solution of 1:20 diluted compound from above is transferred to a clear bottomed, black, 384-well assay plate using the Bravo or the Janus (384-well MDT head from Perkin Elmer). Using a 16-channel Matrix multi-channel pipette, 35 μl of the working solution of HDAC4 catalytic domain enzyme (0.2 μg/mL in assay buffer) is transferred to the assay plate. […] The assay plate is then shaken for two minutes on an orbital shaker at 900 rpm (rotations per minute). Next the plate is incubated for 15 minutes at 37° C. The reaction is stopped by adding 25 μl of 3× (3 μM) developer/stop solution to the assay plates using either the Bravo, Janus or a 16-channel Matrix multi-channel pipette. Assay plates are then shaken for 5 minutes on an orbital shaker at 1200 rpm. Next, the assay plates are incubated at 37° C. for 1 hour in a tissue culture incubator.

Chain of human catalytic domain HDAC4 protein (amino acids 648-1032) (P56524 648-1032): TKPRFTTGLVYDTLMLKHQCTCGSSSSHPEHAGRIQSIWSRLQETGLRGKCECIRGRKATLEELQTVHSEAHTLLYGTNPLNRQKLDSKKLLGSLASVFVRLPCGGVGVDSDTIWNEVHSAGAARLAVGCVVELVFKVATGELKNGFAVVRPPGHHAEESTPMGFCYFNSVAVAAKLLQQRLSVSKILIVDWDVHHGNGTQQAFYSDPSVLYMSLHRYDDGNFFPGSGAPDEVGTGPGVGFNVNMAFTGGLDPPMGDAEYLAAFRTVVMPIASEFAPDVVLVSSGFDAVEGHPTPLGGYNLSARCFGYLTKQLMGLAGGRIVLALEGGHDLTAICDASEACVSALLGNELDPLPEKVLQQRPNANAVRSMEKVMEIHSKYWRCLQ

Row | Structure (SMILES) | IC50 [1] [nM] | IC50 [2] [nM]
1 | Cc1cccc(F)c1C1(C(=O)NO)CCCC1 [Example 37, 1-(2-Fluoro-6-methylphenyl)-N-hydroxycyclopentanecarboxamide] | 12000 | 1500
2 | Cc1ccc(F)cc1C1(C(=O)NO)CCCC1 [Example 36, 1-(5-Fluoro-2-methylphenyl)-N-hydroxycyclopentanecarboxamide] | 7500 | 830
3 | Cc1c(F)cccc1[C@]1(C(=O)NO)CC[C@@H](c2cnn(CCN3CCOCC3)c2)C1 (relative stereo) [Example 47, (1S,3R*)-1-(3-fluoro-2-methylphenyl)-N-hydroxy-3-(1-(2-morpholinoethyl)-1H-pyrazol-4-yl)cyclopentanecarboxamide] | 830 | –
4 | CCN(CC)CCn1cc([C@@H]2CC[C@@](C(=O)NO)(c3cccc(F)c3C)C2)cn1 (relative stereo) [Example 51, (1S,3R*)-3-(1-(2-(diethylamino)ethyl)-1H-pyrazol-4-yl)-1-(3-fluoro-2-methylphenyl)-N-hydroxycyclopentanecarboxamide] | 290 | –
5 | Cc1c(F)cccc1[C@@]1(C(=O)NO)CC[C@@H](c2ccccc2)C1 (stereo in doubt) [Example 7, (1R*,3R*)-1-(3-fluoro-2-methylphenyl)-N-hydroxy-3-phenylcyclopentanecarboxamide] | 1120 | –
6 | Cc1ccccc1[C@H]1CC[C@@](C(=O)NO)(c2cccc(F)c2C)C1 (relative stereo) [Example 8, (±)-(1S*,3S*)1-(3-fluoro-2-methylphenyl)-N-hydroxy-3-(o-tolyl)cyclopentane carboxamide] | 480 | –
7 | Cc1c(F)cccc1[C@]1(C(=O)NO)CC[C@@H](c2ccccc2)C1 (stereo in doubt) [Example 5, (1S*,3R*)-1-(3-fluoro-2-methylphenyl)-N-hydroxy-3-phenylcyclopentanecarboxamide] | 7850 | –
8 | CCCN(CCC)C[C@@H](C)NC(=O)c1ccc([C@@H]2CC[C@@](C(=O)NO)(c3cccc(F)c3C)C2)cc1 (relative stereo) [Example 52, N—((R)-1-(dipropylamino)propan-2-yl)-4-((1R*,3S)-3-(3-fluoro-2-methylphenyl)-3-(hydroxycarbamoyl)cyclopentyl)benzamide] | 180 | –
9 | Cc1c(F)cccc1[C@@]1(C(=O)NO)CC[C@H](c2ccccc2)C1 (stereo in doubt) [Example 4, (1R*,3S*)-1-(3-fluoro-2-methylphenyl)-N-hydroxy-3-phenylcyclopentanecarboxamide] | 440 | –
10 | Cc1c(F)cccc1[C@]1(C(=O)NO)CC[C@H](c2ccccc2)C1 (stereo in doubt) [Example 6, (1S*,3S*)-1-(3-fluoro-2-methylphenyl)-N-hydroxy-3-phenylcyclopentanecarboxamide] | 610 | –

Results, then the molecule that gave them:

Row | IC50 [1] [nM] | IC50 [2] [nM] | Structure (SMILES)
11 | 1900 | 200 | Cc1c(F)cccc1[C@]1(C(=O)NO)CC[C@@H](Oc2cncc(F)c2)C1 [Example 93, (1S,3R)-1-(3-fluoro-2-methylphenyl)-3-((5-fluoropyridin-3-yl)oxy)-N-hydroxycyclopentanecarboxamide]
12 | 370 | 660 | Cc1c(F)cccc1[C@]1(C(=O)NO)CC[C@@H](c2cncc(F)c2)CC1 [Example 100, (1s,4s)-1-(3-Fluoro-2-methylphenyl)-4-(5-fluoropyridin-3-yl)-N-hydroxycyclohexanecarboxamide]
13 | 380 | – | Cc1c(F)cccc1[C@]1(C(=O)NO)CC[C@@H](c2ccc3sc(C4CC4)nc3c2)C1 (relative stereo) [Example 80, (1 S,3R*)-3-(2-Cyclopropylbenzo[c]thiazol-5-yl)-1-(3-fluoro-2-methylphenyl)-N-hydroxycyclopentanecarboxamide]
14 | 150 | – | CCCN(CCC)C[C@@H](C)NC(=O)c1ccc([C@H]2CC[C@@](C(=O)NO)(c3cccc(F)c3C)C2)cc1 (relative stereo) [Example 53, N—((R)-1-(dipropylamino)propan-2-yl)-4-((1S*,3S)-3-(3-fluoro-2-methylphenyl)-3-(hydroxycarbamoyl)cyclopentyl)benzamide]
15 | 190 | – | Cc1c(F)cccc1[C@]1(C(=O)NO)CC[C@@H](c2ccc3c(c2)CN(C2CC2)C3=O)C1 (relative stereo) [Example 59, (1S,3R*)-3-(2-cyclopropyl-1-oxoisoindolin-5-yl)-1-(3-fluoro-2-methylphenyl)-N-hydroxycyclopentanecarboxamide]
16 | 380 | – | Cc1c(F)cccc1[C@]1(C(=O)NO)CC[C@H](c2ccc3sc(C4CC4)nc3c2)C1 (relative stereo) [Example 79, (1S,3S*)-3-(2-Cyclopropylbenzo[d]thiazol-5-yl)-1-(3-fluoro-2-methylphenyl)-N-hydroxycyclopentanecarboxamide]
17 | > 50000 | – | Cc1c(F)cccc1[C@]1(C(=O)NO)CC[C@H](N2CCCC2)C1 (relative stereo) [Example 88, (1 S,3S*)-1-(3-fluoro-2-methylphenyl)-N-hydroxy-3-(pyrrolidin-1-yl)cyclopentanecarboxamide]
18 | 160 | – | Cc1c([C@]2(C(=O)NO)CC[C@@H](c3ccc4cnn(C)c4c3)C2)ccc(F)c1F (relative stereo) [Example 86, (1S,3R*)-1-(3,4-difluoro-2-methylphenyl)-N-hydroxy-3-(1-methyl-1H-indazol-6-yl)cyclopentanecarboxamide]
19 | > 50000 | – | Cc1c(F)cccc1[C@]1(C(=O)NO)CC[C@@H](N2CCCC2)C1 (relative stereo) [Example 87, (1 S,3R*)-1-(3-fluoro-2-methylphenyl)-N-hydroxy-3-(pyrrolidin-1-yl)cyclopentanecarboxamide]
